Data as given in patent publication US20030144269A1, “Reducing pulse pressures and vascular stiffness in hypertensive patients by administering a vasopeptidase inhibitor” (priority 2001, published 2003).

Key:
[1] = test system: patients who had left ventricular dysfunction and class II-IV congestive heart failure; settings: cited from earlier work
[2] = test system: patients with systolic or mixed systolic-diastolic hypertension; experiment: Double-blind 12-week comparison of omapatrilat and enalapril: trough pulsatile hemodynamics (cuff pressure, arterial tonometry, Doppler flow); type: in vivo, human; settings: for Brachial pressures: Systolic pressure: trough (24 h after last dose), titrated to 80 mg omapatrilat or 40 mg enalapril; for Brachial pressures: Systolic pressure / PfPb Temporal overlap / Augmentation index / Brachial pressures: Diastolic pressure / Brachial pressures: Mean pressure / Brachial pressures: Pulse pressure / Carotid-femoral PWV / Carotid-radial PWV / Central hemodynamics: Heart rate / Central hemodynamics: Mean flow / Central hemodynamics: Peak flow / Central hemodynamics: Peripheral resistance (DSC) / Central hemodynamics: Pulse pressure / Central hemodynamics: Systolic pressure / Central stiffness parameters: Characteristic impedance (DSC) / Central stiffness parameters: First impedance modulus (DSC) / Central stiffness parameters: Proximal aortic compliance (CD) / End-systolic pressure / Forward wave, Pf / PbPf Amplitude ratio / Pressure at ti / Reflected wave arrival time, ti / Reflected wave, Pb / Systolic ejection period: mean ± SD; for PfPb Temporal overlap: % of systolic ejection period; for change in characteristic impedance / reduction in mean arterial pressure: change from baseline at 12 weeks; for change in characteristic impedance: only subjects with reduction in mean arterial pressure between 0 and −40 mmHg; for reduction in mean arterial pressure: only subjects with reduction in mean arterial pressure between 0 and −40 mmHg (68 omapatrilat, 59 enalapril); for changes in regional pulse wave velocities (carotid-femoral and carotid-radial) (FIG. 4): in vivo
Protocol: The following study was performed to compare treatment with the vasopeptidase inhibitor omapatrilat and the angiotensin converting enzyme inhibitor enalapril.
Study subjects. Male or female subjects age 18 years or older were eligible if they were in sinus rhythm and had systolic or mixed systolic-diastolic hypertension, defined as a seated systolic blood pressure ≧160 mmHg if newly diagnosed or ≧140 mmHg if currently treated and diastolic blood pressure ≦110 mmHG. Patients with known or suspected secondary forms of hypertension were excluded. Patients with a history of transient ischemic attacks within the prior 12 months or myocardial infarction or angina within the prior 6 months were excluded. All patients with heart failure, documented ejection fraction <45%, valvular heart disease or clinically significant peripheral vascular disease (bruit or diminished pulse in any of the brachial, radial, femoral or carotid arteries or blood pressure difference between upper extremities >6 mmHg) were excluded. Additional exclusion criteria included renal or renovascular disease, uncontrolled diabetes (glucose >200 mg/dl fasting or >220 mg/dL nonfasting), autoimmune disease, multiple drug allergies, bronchospastic disease requiring chronic medication. Laboratory exclusion criteria included hemoglobin <9 g/dl, platelet count <80,000/μl, white cell count <3000/μl, neutrophil count <1500/μl, serum potassium <3.5 or >5.2 mmol/L, alanine aminotransferase or aspartate aminotransferase greater than three times the upper limits of normal or serum creatinine >2.5 mg/dL. Failure to obtain a technically satisfactory baseline study, as determined by the core lab, was an exclusion criterion. If an initial baseline study had potentially remediable technical limitations, a repeat study was allowed within 2-9 days.
Treatment protocol: A single-blind placebo lead-in period of 1-2 weeks, during which the seated blood pressure was confirmed to be ≧160 mmHg and <200 mmHg and the diastolic pressure ≦110 mmHg, after withdrawl of antihypertensive medications, was followed by a double-blind active treatment period of 12 weeks. Baseline hemodynamic studies were performed at the end of the placebo lead-in period between 6:00 and 10:00 a.m. with the patient in a fasting state prior to taking morning medications and off all antihypertensive medications for at least 1 week. Patients were randomized within 2-9 days following an approved baseline study. Treatment was initiated with either 10 mg omapatrilat or 10 mg enalapril and was titrated at two and four weeks to doses of 40 then 80 mg omapatrilat or 20 then 40 mg enalapril. […] No concomitant antihypertensive medications were permitted during the study. A trough hemodynamic study, the primary endpoint of the trial was performed at the end of the active treatment period, 24 hours after the last prior dose of study medication, under identical conditions as the baseline study. Patients were then given one additional dose of study medication, which was followed 4 hours later by a final (peak) hemodynamic study. In order to focus on long-term effects of therapy, the primary endpoint of the study was prospectively defined as the trough change from baseline in pulsatile hemodynamics.
Hemodynamic data acquisition: Subjects were studied in the supine position after approximately 10 minutes of rest. Using a semi-automated computer-controlled device, auscultatory blood pressure was obtained 3-5 times at 2 minute intervals with a goal of obtaining 3 sequential readings that agreed to within 5 mmHg for systolic and diastolic. Arterial tonometry and ECG were obtained form the brachial, radial, femoral and carotid arteries using a custom transducer. Next, the patient was placed in the left lateral decubitus position and echocardiographic images of the left ventricular outflow tract were obtained from a parasternal long axis view. […]

Structure (SMILES)	shortening of the systolic ejection period ([2]; 12 weeks, trough)	Brachial pressures: Systolic pressure ([2]; 12 weeks) [mmHg]	PfPb Temporal overlap ([2]; 12 weeks, trough) [%]	Augmentation index ([2]; 12 weeks, trough) [%]	Brachial pressures: Diastolic pressure ([2]; 12 weeks, trough) [mmHg]	Brachial pressures: Mean pressure ([2]; 12 weeks, trough) [mmHg]	Brachial pressures: Pulse pressure ([2]; 12 weeks, trough) [mmHg]	Carotid-femoral PWV ([2]; 12 weeks, trough) [m/s]	Carotid-radial PWV ([2]; 12 weeks, trough) [m/s]	Central hemodynamics: Heart rate ([2]; 12 weeks, trough) [min⁻¹]	Central hemodynamics: Mean flow ([2]; 12 weeks, trough) [mL/s]	Central hemodynamics: Peak flow ([2]; 12 weeks, trough) [mL/s]	Central hemodynamics: Peripheral resistance (DSC) ([2]; 12 weeks, trough) [dyne × sec / cm^5]	Central hemodynamics: Pulse pressure ([2]; 12 weeks, trough) [mmHg]	Central hemodynamics: Systolic pressure ([2]; 12 weeks, trough) [mmHg]	Central stiffness parameters: Characteristic impedance (DSC) ([2]; 12 weeks, trough) [dyne × sec / cm^5]	Central stiffness parameters: First impedance modulus (DSC) ([2]; 12 weeks, trough) [dyne × sec / cm^5]	Central stiffness parameters: Proximal aortic compliance (CD) ([2]; 12 weeks, trough)	End-systolic pressure ([2]; 12 weeks, trough) [mmHg]	Forward wave, Pf ([2]; 12 weeks, trough) [mmHg]	further results
O=C(N[C@H]1CCS[C@H]2CCC[C@@H](C(=O)O)N2C1=O)[C@H](S)Cc1ccccc1 (relative stereo) [Omapatrilat, [4S-[4α(R*),7α,10aβ]]-octahydro-4-[(2-mercapto-1-oxo-3-phenylpropyl)amino]-5-oxo-7H-pyrido[2,1-b][1,3]thiazepine-7-carboxylic acid]	not seen	147 ± 20	64 ± 12	19 ± 13	76 ± 11	105 ± 13	71 ± 18	11.4 ± 3.1	10.1 ± 1.4	64 ± 9	73 ± 16	312 ± 68	1986 ± 449	71 ± 22	147 ± 24	208 ± 70	323 ± 119	0.53 ± 0.26^† 10^−5 cm^4 / dyne	114 ± 16	54 ± 16	carotid-femoral pulse wave velocity [1]: favorable trend toward reduction; PbPf Amplitude ratio ([2]; 12 weeks, trough): 47 ± 7%; Pressure at ti ([2]; 12 weeks, trough): 132 ± 20 mmHg; Reflected wave arrival time, ti ([2]; 12 weeks, trough): 116 ± 36 ms; Reflected wave, Pb ([2]; 12 weeks, trough): 25 ± 7 mmHg; Systolic ejection period ([2]; 12 weeks, trough): 320 ± 26 ms; peripheral resistance ([2]; 12 weeks, trough, versus enalapril): reduced more; amplitude of the forward pressure wave ([2]; 12 weeks, unchanged peak flow): markedly reduced; change in characteristic impedance adjusted for baseline mean arterial pressure and change in mean arterial pressure ([2]; 12 weeks, versus enalapril, P<0.05): remained significant; change in characteristic impedance [2]: −37±58 dyne×sec/cm^5; reduction in mean arterial pressure [2]: −13.8±7.4 mmHg; changes in central pulse pressure (FIG. 2) ([2]; compared to enalapril): greater reduction in the central pulse pressure compared to enalapril; change in peripheral (brachial) systolic, diastolic, and pulse pressure (FIG. 1) ([2]; compared to enalapril, p<0.05): greater reductions in all measurements; changes in regional pulse wave velocities (carotid-femoral and carotid-radial) (FIG. 4) [2]: reduced regional pulse wave velocity; arrival time of the reflected wave (FIG. 4) ([2]; p<0.05): delayed reflected wave arrival time; characteristic impedance, a direct measure of aortic stiffness (FIG. 3) ([2]; without a change in aortic flow): significantly reduced
CCOC(=O)[C@H](CCc1ccccc1)N[C@@H](C)C(=O)N1CCC[C@H]1C(=O)O [Enalapril, reference compound]	shortening of the systolic ejection period	155 ± 20	66 ± 8	21 ± 10	81 ± 10	111 ± 12	74 ± 20	11.9 ± 3.7	10.6 ± 1.8	63 ± 8	73 ± 16	314 ± 70	2122 ± 462	75 ± 23	156 ± 24	231 ± 94	352 ± 163	0.49 ± 0.28 10^−5 cm^4 / dyne	120 ± 14	58 ± 17	PbPf Amplitude ratio ([2]; 12 weeks, trough): 46 ± 8%; Pressure at ti ([2]; 12 weeks, trough): 139 ± 17 mmHg; Reflected wave arrival time, ti ([2]; 12 weeks, trough): 108 ± 25 ms; Reflected wave, Pb ([2]; 12 weeks, trough): 27 ± 8 mmHg; Systolic ejection period ([2]; 12 weeks, trough): 319 ± 27 ms; change in characteristic impedance [2]: −4±67 dyne×sec/cm^5; reduction in mean arterial pressure [2]: −12.0±8.1 mmHg; changes in regional pulse wave velocities (carotid-femoral and carotid-radial) (FIG. 4) [2]: reduced regional pulse wave velocity
